Earlier results on one compound are cited in patent publication US20060003984A1, “Monobactam compositions and methods of use thereof” (Chiron Corporation, priority 2001, published 2006).

Bounds are passed on as bounds.

The data set has as its system Gram-negative bacteria. The following applies: many Gram-negative bacteria.

As for `NC[C@H]1O[C@H](O[C@H]2[C@H](O)[C@@H](O[C@H]3O[C@H](CO)[C@@H](O)[C@H](N)[C@H]3O)[C@H](N)C[C@@H]2N)[C@H](N)C[C@@H]1O` [tobramycin], the “concentration effective in inhibiting growth” value was less than 4 µg/mL.
